Reference: ChEMBL document CHEMBL1201862, “PubChem BioAssay data set” (2004)
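96-well plates; 48 h exposure; 5 concentrations. Endpoints by linear interpolation between flanking doses. Not reached: highest tested concentration assigned. Here, GI50 denotes the concentration required for 50% inhibition of growth.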 The source made the active and inactive calls. Rule as the data show it: active = GI50 up to about 1.1 µM and inactive = higher.

Legend:
Experiment in all cases: DTP human tumour cell line panel, 48 h
COLO 205 = tested on: COLO 205
EKVX = tested on: EKVX
HCT-116 = tested on: HCT-116
HL-60 = tested on: HL-60
HOP-92 = tested on: HOP-92
HT-29 = tested on: HT-29
MOLT-4 = tested on: MOLT-4
Malme-3M = tested on: Malme-3M
NCI-H460 = tested on: NCI-H460
OVCAR-4 = tested on: OVCAR-4
RXF 393 = tested on: RXF 393
SK-MEL-28 = tested on: SK-MEL-28
SK-MEL-2 = tested on: SK-MEL-2
SK-OV-3 = tested on: SK-OV-3
SW-620 = tested on: SW-620
UACC-257 = tested on: UACC-257
A498 = tested on: A498

COC(=O)C1=CNC(C(=O)OC)=NN1
GI50 (COLO 205): > 100 µM (inactive) | GI50 (EKVX): > 10 µM (inactive) | GI50 (HCT-116): > 100 µM (inactive) | GI50 (HL-60): > 100 µM (inactive) | GI50 (HOP-92): > 100 µM (inactive) | GI50 (HT-29): > 100 µM (inactive) | GI50 (MOLT-4): > 100 µM (inactive) | GI50 (Malme-3M): > 100 µM (inactive) | GI50 (NCI-H460): > 100 µM (inactive) | GI50 (OVCAR-4): > 100 µM (inactive) | GI50 (RXF 393): > 100 µM (inactive) | GI50 (SK-MEL-28): > 100 µM (inactive) | GI50 (SK-MEL-2): > 100 µM (inactive) | GI50 (SK-OV-3): > 100 µM (inactive) | GI50 (SW-620): > 100 µM (inactive) | GI50 (UACC-257): > 100 µM (inactive)

CCn1cc(C(=O)O)c(=O)c2cc(F)c(N3CCNCC3)nc21 [ENOXACIN]
GI50 (A498): > 100 µM (inactive) | GI50 (COLO 205): > 100 µM (inactive) | GI50 (EKVX): > 100 µM (inactive) | GI50 (HCT-116): 65.6 µM (inactive) | GI50 (HL-60): > 100 µM (inactive) | GI50 (HOP-92): 32.8 µM (inactive) | GI50 (HT-29): > 100 µM (inactive) | GI50 (MOLT-4): 67.1 µM (inactive) | GI50 (Malme-3M): 74.1 µM (inactive) | GI50 (NCI-H460): > 100 µM (inactive) | GI50 (OVCAR-4): > 100 µM (inactive) | GI50 (SK-MEL-28): > 100 µM (inactive) | GI50 (SK-MEL-2): > 100 µM (inactive) | GI50 (SK-OV-3): > 100 µM (inactive) | GI50 (SW-620): > 100 µM (inactive) | GI50 (UACC-257): > 100 µM (inactive)

CCN(CC)C(=O)c1c(N2CCOCC2)cc(N(CC)CC)oc1=O
GI50 (A498): > 100 µM (inactive) | GI50 (COLO 205): > 100 µM (inactive) | GI50 (EKVX): > 100 µM (inactive) | GI50 (HCT-116): > 100 µM (inactive) | GI50 (HL-60): > 100 µM (inactive) | GI50 (HOP-92): > 100 µM (inactive) | GI50 (HT-29): > 100 µM (inactive) | GI50 (MOLT-4): > 100 µM (inactive) | GI50 (Malme-3M): > 100 µM (inactive) | GI50 (NCI-H460): > 100 µM (inactive) | GI50 (OVCAR-4): > 100 µM (inactive) | GI50 (RXF 393): > 100 µM (inactive) | GI50 (SK-MEL-28): > 100 µM (inactive) | GI50 (SK-MEL-2): > 100 µM (inactive) | GI50 (SK-OV-3): > 100 µM (inactive) | GI50 (SW-620): > 100 µM (inactive) | GI50 (UACC-257): > 100 µM (inactive)

CC(C)C(Sc1nc(-c2ccccc2)c(-c2ccccc2)[nH]1)C(=O)NNC(=S)Nc1ccccc1 (stereo unspecified)
GI50 (A498): 26 µM (inactive) | GI50 (COLO 205): 18.5 µM (inactive) | GI50 (EKVX): 23.8 µM (inactive) | GI50 (HCT-116): 22.9 µM (inactive) | GI50 (HL-60): 20.4 µM (inactive) | GI50 (HOP-92): 15.2 µM (inactive) | GI50 (HT-29): 17.7 µM (inactive) | GI50 (MOLT-4): 12.1 µM (inactive) | GI50 (Malme-3M): 16.7 µM (inactive) | GI50 (NCI-H460): 17.1 µM (inactive) | GI50 (OVCAR-4): 22.5 µM (inactive) | GI50 (SK-MEL-28): 22.7 µM (inactive) | GI50 (SK-MEL-2): 19.2 µM (inactive) | GI50 (SK-OV-3): 21.5 µM (inactive) | GI50 (SW-620): 15.3 µM (inactive) | GI50 (UACC-257): 16.9 µM (inactive)

C/C(=N\NC(=S)N(C)C)c1ncc[nH]1
GI50 (A498): 3.94 µM (inactive) | GI50 (EKVX): 4.51 µM (inactive) | GI50 (HCT-116): 3.56 µM (inactive) | GI50 (HL-60): 2.63 µM (inactive) | GI50 (HOP-92): 2.47 µM (inactive) | GI50 (HT-29): 5.73 µM (inactive) | GI50 (MOLT-4): 3.06 µM (inactive) | GI50 (Malme-3M): 3.36 µM (inactive) | GI50 (NCI-H460): 3.24 µM (inactive) | GI50 (RXF 393): 6 µM (inactive) | GI50 (SK-MEL-28): 7.48 µM (inactive) | GI50 (SK-MEL-2): 3.69 µM (inactive) | GI50 (SK-OV-3): 3.87 µM (inactive) | GI50 (SW-620): 4.59 µM (inactive) | GI50 (UACC-257): 2.92 µM (inactive)

CCC1CC2C(=O)N(c3ccccc3)C(=O)C2c2[nH]c3ccccc3c21 (stereo unspecified)
GI50 (A498): 25.4 µM (inactive) | GI50 (COLO 205): 22 µM (inactive) | GI50 (EKVX): 23.2 µM (inactive) | GI50 (HL-60): 21.6 µM (inactive) | GI50 (HT-29): 22.2 µM (inactive) | GI50 (MOLT-4): 20.2 µM (inactive) | GI50 (Malme-3M): 14.1 µM (inactive) | GI50 (NCI-H460): 15.8 µM (inactive) | GI50 (OVCAR-4): 4.61 µM (inactive) | GI50 (RXF 393): 21.5 µM (inactive) | GI50 (SK-MEL-28): 38.6 µM (inactive) | GI50 (SK-OV-3): 13.6 µM (inactive) | GI50 (SW-620): 46.1 µM (inactive)

CCCc1c[nH]c(-c2ccc(-c3cc(CCC)c(C=O)[nH]3)s2)c1
GI50 (A498): 7.82 µM (inactive) | GI50 (HCT-116): 18 µM (inactive) | GI50 (HL-60): 21.2 µM (inactive) | GI50 (HT-29): 5.38 µM (inactive) | GI50 (MOLT-4): 26.4 µM (inactive) | GI50 (Malme-3M): 15.2 µM (inactive) | GI50 (NCI-H460): 4.55 µM (inactive) | GI50 (OVCAR-4): 18.9 µM (inactive) | GI50 (RXF 393): 21.7 µM (inactive) | GI50 (SK-MEL-28): 13.6 µM (inactive) | GI50 (SK-MEL-2): 15 µM (inactive) | GI50 (SK-OV-3): 18.5 µM (inactive) | GI50 (SW-620): 17.4 µM (inactive) | GI50 (UACC-257): 17.3 µM (inactive)

COc1cc2c(c(OC(C)=O)c1OC(C)=O)-c1ccc(SC)c(=O)cc1C(NC(C)=O)CC2 (stereo unspecified)
GI50 (A498): 4.83 µM (inactive) | GI50 (COLO 205): 0.998 µM (active) | GI50 (EKVX): 32.1 µM (inactive) | GI50 (HCT-116): 1.36 µM (inactive) | GI50 (HL-60): 0.375 µM (active) | GI50 (HOP-92): 0.741 µM (active) | GI50 (HT-29): 2.04 µM (inactive) | GI50 (MOLT-4): 1.52 µM (inactive) | GI50 (Malme-3M): 1.34 µM (inactive) | GI50 (NCI-H460): 3.15 µM (inactive) | GI50 (OVCAR-4): 9.82 µM (inactive) | GI50 (RXF 393): 8.91 µM (inactive) | GI50 (SK-MEL-28): 3.24 µM (inactive) | GI50 (SK-MEL-2): 0.565 µM (active) | GI50 (SK-OV-3): > 19.5 µM (inactive) | GI50 (SW-620): 0.951 µM (active) | GI50 (UACC-257): 1.07 µM (active)

CC1=C(C(=O)Nc2cc(=O)n(C)c(=O)n2C)C(c2ccc([N+](=O)[O-])cc2)C(C(=O)Nc2cc(=O)n(C)c(=O)n2C)=C(C)N1
GI50 (A498): > 100 µM (inactive) | GI50 (COLO 205): > 100 µM (inactive) | GI50 (EKVX): > 100 µM (inactive) | GI50 (HCT-116): 74.3 µM (inactive) | GI50 (HL-60): > 100 µM (inactive) | GI50 (HOP-92): 26.7 µM (inactive) | GI50 (HT-29): > 100 µM (inactive) | GI50 (MOLT-4): 52.4 µM (inactive) | GI50 (Malme-3M): > 100 µM (inactive) | GI50 (NCI-H460): > 100 µM (inactive) | GI50 (OVCAR-4): 31.5 µM (inactive) | GI50 (RXF 393): > 100 µM (inactive) | GI50 (SK-MEL-28): > 100 µM (inactive) | GI50 (SK-MEL-2): > 100 µM (inactive) | GI50 (SK-OV-3): 32.3 µM (inactive) | GI50 (SW-620): > 100 µM (inactive) | GI50 (UACC-257): 86.7 µM (inactive)
